Results: patent US8999944B2, “Thioredoxin interacting protein (TXNIP) as regulator of vascular function” (University of Rochester, priority 2005, dated 2015)

Tested on: VCAM1
Experiment: TNF-induced VCAM1 expression in HUVEC (immunoblotting)
Assay type: cell-based, human
Settings: for TNF-induced VCAM1 expression: inhibitor at 30 μM
Description: FIG. […] VCAM-1 expression was determined by immunoblotting from 3 independent experiments. Equal protein loading was confirmed with actin antibody.
To knockdown TXNIP, HUVEC were treated with small interference RNA (siRNA) against human TXNIP coding region. The target sequences were: 5′-AAGCCGTTAGGATCCTGGCTT (SEQ ID NO: 1) for human TXNIP and 5′-AATTCTCCGAACGTGTCACGT-3′ (SEQ ID NO: 2) for control non-silencing siRNA, respectively (Qiagen-Xeragon). HUVEC at >90% confluence in 60-mm dishes were used for transfection. […] This mixture was added to HUVEC in normal culture media (2 ml) and cells were incubated for 1.5 h. The medium was changed and cells recovered for 24 h. The transfection was repeated and after 24 h, cells were used for experiments.
I.P. and I.B. experiments were performed as described previously (Surapisitchat et al., “Fluid Shear Stress Inhibits TNF-Alpha Activation of JNK but not ERK½ or p38 in Human Umbilical Vein Endothelial Cells: Inhibitory Crosstalk Among MAPK Family Members,” Proc Natl Acad Sci USA 98:6476-6481 (2001); Liu et al., “Laminar Flow Inhibits TNF-Induced ASK1 Activation by Preventing Dissociation of ASK1 From its Inhibitor 14-3-3,” J Clin Invest 107:917-923 (2001); Yamawaki et al., “Chronic Physiological Shear Stress Inhibits Tumor Necrosis Factor-Induced Proinflammatory Responses in Rabbit Aorta Perfused ex vivo,” Circulation 108:1619-1625 (2003), each of which is hereby incorporated by reference in its entirety). The resulting autoradiograms were analyzed with NIH Image 1.60. Experiments were performed at least three times and equal loading of protein was ensured by measuring actin expression.

SMILES	TNF-induced VCAM1 expression	effect on VCAM1 expression (inhibitor at 10 μM, n=4)
COc1cccc(-c2cc(=O)c3ccccc3o2)c1N [PD98059]	not	–
C[S+]([O-])c1ccc(-c2nc(-c3ccncc3)c(-c3ccc(F)cc3)[nH]2)cc1 (stereo not drawn) [SB203580]	almost completely blocked	–
Oc1c2ccccc2c2c3c(cccc13)N=N2 [SP600125]	–	no effect
